Experimental data as given in patent US20210214359A1, “Compounds and Methods for Treating Bacterial Infections” (NEW YORK UNIVERSITY, priority 2018, published 2021).
pIC50, pKd: −log10 of the molar value.

Key:
S. aureus RN4220 = assay: growth inhibition assay in liquid culture, potentiation of gentamicin (Gm); assay type: cell-based; conditions: compound at 0.375 μg/mL
From the text: The compounds of the invention were screened in a growth inhibition assay in liquid culture of nonpathogenic S. aureus RN4220 to directly test whether a hit compound can potentiate the action of gentamicin (Gm) added at ≤10% the minimal inhibitory concentration (MIC). Gentamicin is a ribosome-targeting bactericidal antibiotic induces oxidative stress and is effective against MRSA strains. Although gentamicin is not a first-line antibiotic for monotherapy of staphylococcal infection, it is used in combination with vancomycin or β-lactams to treat serious infections, such as endocarditis.
The MIC results for the remaining compounds of the disclosure are provided in Table 2. % MIC activity of 51-100 is labeled “+”, % MIC activity of 21-50 is labeled “++”, and % MIC activity of ≤20 is labeled “+++”.

S. aureus CSE [1] = biological target: T1, S. aureus CSE (Staphylococcus aureus, UniProt A0A0H3K724); assay: H2S produced by purified CSE in vitro; assay type: biochemical; conditions: read-out: IC50, reduction of enzymatic activity (H2S produced by purified CSE)
T1 sequence (A0A0H3K724 entry or part of it): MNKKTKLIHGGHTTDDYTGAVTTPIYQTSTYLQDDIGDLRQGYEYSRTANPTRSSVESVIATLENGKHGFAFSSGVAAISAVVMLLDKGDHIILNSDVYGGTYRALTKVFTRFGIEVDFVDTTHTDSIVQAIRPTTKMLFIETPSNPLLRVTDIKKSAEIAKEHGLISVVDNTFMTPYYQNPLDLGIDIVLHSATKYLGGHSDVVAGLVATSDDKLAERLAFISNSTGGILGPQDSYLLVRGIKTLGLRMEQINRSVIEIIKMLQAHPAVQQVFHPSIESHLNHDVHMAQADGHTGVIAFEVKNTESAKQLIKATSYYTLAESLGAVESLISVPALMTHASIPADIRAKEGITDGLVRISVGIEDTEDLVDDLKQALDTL
Protocol: (§1) The amount of H2S produced by purified CSE was measured in the presence of the compound of Ex. 80 and found strong reduction of enzymatic activity with IC50 about 100 nM (FIG. 2B). This IC50 values are 10- to 400-fold lower than those determined for conventional CSE inhibitors and correlates well with its binding affinity, KD, as determined by MicroScale Thermophoresis (MST) (FIG. 2C).

[2] = tested on: methicillin-resistant USA300 strain; assay: growth inhibition test in combination with methicillin; assay type: cell-based, S. aureus; conditions: for bacterial growth, agent alone: single agent
Protocol: (§2) FIG. 3 illustrates inhibition of culture growth of drug-resistant S. aureus by (A) the compound of Ex. 80 (GO-0001197; labeled as #9077) (30 μM) and 50% MIC of methicillin (Met) in methicillin-resistant USA300 strain; or by (B) the compound of Ex. 80 (30 μM) and 50% MIC of vancomycin (Van) in vancomycin-resistant RN10659 strain.
(§3) Because H2S inhibitors dramatically reduce the effective dose of antibiotics, they may potentiate or augment the activity of antibiotics in the strains that acquired resistance to these antibiotics. The compound of Ex. 80 (GO-0001197) was evaluated with two clinically relevant antibiotics, methicillin and vancomycin, which have different mechanisms of resistance.

[3] = tested on: vancomycin-resistant RN10659 strain; assay: growth inhibition test in combination with vancomycin; assay type: cell-based, S. aureus; conditions: for bacterial growth, agent alone: single agent
Protocol: as §2, §3

human BJ cell line = assay: IncuCyte Cytotoxicity Assay; assay type: cell-based
Protocol: To determine toxicity of the compounds of the disclosure, an IncuCyte™ Cytotoxicity Assay (Essen BioScience) in the human BJ cell line was conducted. Cell cultures were supplemented with a chemical probe which entered the cell and labeled nuclei green fluorescence as cells die and membrane integrity is lost. Nuclei of live cells were labeled with red fluorescence. […] This cytotoxic concentration was over 50-fold higher than the optimal concentration of the compound of Ex. 80 for bacterial growth inhibition in liquid culture in combination with 10% MIC of gentamicin. Therefore, the compounds of the disclosure show low cytotoxicity in human cell lines and present desirable targets for the development of compositions for treating bacterial infections.

HeLa cells = assay: cytotoxicity in HeLa cells using a different assay; assay type: cell-based
S. aureus CSE [4] = biological target: T1, S. aureus CSE; assay: binding to CSE by MicroScale Thermophoresis (MST)
Protocol: as §1

O=C(O)c1cc(Cn2ccc3ccc(-c4cc5cccc(Cl)c5s4)cc32)[nH]n1 [Example 68, 5-{[6-(7-chloro-1-benzothiophen-2-yl)-1H-indol-1-yl]methyl}-1H-pyrazole-3-carboxylic acid]
% MIC at 0.375 μg/mL (S. aureus RN4220): 10 (% MIC at 0.375 μg/mL)

O=C(O)CNC(=O)Cn1ccc2ccc(Br)cc21 [Example 80, (2-(6-bromo-1H-indol-1-yl)acetyl)glycine]
pIC50 (S. aureus CSE [1]): ~7.00 | bacterial growth in co-treatment with methicillin ([2]; Ex. 80 10 μg/mL + methicillin 5 μg/mL): inhibition of bacterial growth | bacterial growth, agent alone [2]: did not affect bacterial growth | bacterial growth in co-treatment with vancomycin ([3]; Ex. 80 10 μg/mL + vancomycin 2 μg/mL): inhibition of bacterial growth | bacterial growth, agent alone [3]: did not affect bacterial growth | concentration at which more than a half of the cells died (human BJ cell line; human): 1,250 μM | concentration at which practically all cells died (human BJ cell line; human): 2,500 μM | concentration at which the compound becomes toxic to cells (conservative estimation) (human BJ cell line; human): ~500 µM | concentration at which the number of dead cells started to increase (human BJ cell line; human): 625 µM | cytotoxic concentration fold higher than optimal concentration for bacterial growth inhibition (human BJ cell line; versus liquid culture with 10% MIC of gentamicin): over 50 fold | cytotoxic concentration (HeLa cells): ~400 µM

C#CCC(N)C(=O)O (stereo not shown) [PAG, propargylglycine]
pKd (S. aureus CSE [4]): ~4.05 | fold higher KD than Ex. 80 (S. aureus CSE [4]; MST, CSE): 225 fold

COc1cccc(OC)c1C(=O)N[C@@H]1C(=O)N2[C@@H]1SC(C)(C)[C@@H]2C(=O)O [methicillin, reference compound]
bacterial growth, agent alone [2]: only slowed down growth

CN[C@H](CC(C)C)C(=O)N[C@H]1C(=O)N[C@@H](CC(N)=O)C(=O)N[C@H]2C(=O)N[C@H]3C(=O)N[C@H](C(=O)N[C@H](C(=O)O)c4cc(O)cc(O)c4-c4cc3ccc4O)[C@H](O)c3ccc(c(Cl)c3)Oc3cc2cc(c3O[C@@H]2O[C@H](CO)[C@@H](O)[C@H](O)[C@H]2O[C@H]2C[C@](C)(N)[C@H](O)[C@H](C)O2)Oc2ccc(cc2Cl)[C@H]1O [vancomycin, reference compound]
bacterial growth, agent alone [3]: only slowed down growth
